Assay [1] has as its system Full thickness wounds on the back of C57BL mice. Kind of assay: Wound healing assay, full thickness incision wounds in mice. It counts as in vivo. Conditions: for epidermal migration vs PBS control (K14 staining) / wound contraction vs PBS control / dermal contraction (both dermal wound sides in a single field, H&E): topical daily for 6 days; for epidermal migration vs PBS control (K14 staining) / wound contraction vs PBS control / dermal contraction (both dermal wound sides in a single field, H&E) / wound area compared with the buffer control (morphological analysis): GW9662 2 μM, adipsin 1 μM; for wound contraction vs PBS control / wound area compared with the buffer control (morphological analysis): troglitazone 100 μM; for dermal contraction (both dermal wound sides in a single field, H&E): control negative; for wound area compared with the buffer control (morphological analysis): topical daily for six days, insulin 10 nM, troglitazone 100 μM + insulin 10 nM. The protocol:
[…] […] Wound biopsies were sampled, processed and analyzed morphologically and/or histochemically and/or immunohistochemically for various wound healing parameters, i.e., wound contraction, adipocytes migration and differentiation, epidermal migration, and epidermal closure.
The wound area was measured and compared to untreated control wounds; and wound contraction was calculated as the percent reduction of the wound area.
Wound biopsies were fixed in 4% paraformaldehyde then dehydrated in increasing concentrations of ethanol (50-100%). The dehydrated preparations were immersed first in xylene, then paraffin and xylene 1:1 solution, then in pure melted paraffin (60° C.). The paraffin blocks were then sectioned by a microtome and the sections were mounted on Super Frost^+™ slides.
Paraffin embedded wound-section slides were incubated at 60° C. for 60 minutes and were de-parafinated by washing the slides twice with toluene (100%) for 10 minutes, then rehydrated in decreasing concentration of ethanol (100-50%) for 5 minutes each. The slides were stained with hematoxylin (ready to use solution) for 10 minutes, rinsed with water, stained with eosin (0.5% in DDW) for 5 minutes, and then washed with 70% ethanol by 2 quick immersions. Thereafter, the slides were dehydrated by washing once with 95% ethanol for 2 minutes, twice with 100% ethanol for 5 minutes, and twice with xylene (100%) for 10 minutes, then mounted with entellan (MERCK Darmstadt Germany).
Paraffin embedded wound-section slides were de-parafinated as described for H&E staining above and incubated in blocking solution (5% BSA and 0.5% Tween 20™ in PBS) for 1 hour. The slides were then incubated with either anti-keratin 1 (1:500) or anti-keratin 14 (1:1000) antibody in blocking solution (5% BSA and 0.5% Tween 20™ in PBS) at 4° C. overnight. Thereafter, the slides were washed five times with washing buffer (5% Tween 20™ in PBS for K14 and 0.5% Tween 20™ in PBS for K1) followed by incubation with biotinilated goat anti-rabbit antibody (ZYMED Laboratories Inc.) suspended (1:200) in blocking solution (5% BSA and 0.5% Tween 20™ in PBS) for 1 hour at room temperature. The slides were then washed three times with washing buffer (5% Tween 20™ in PBS) followed by incubation with an enzyme streptavidin conjugate in blocking solution (1:300) for 1 hour at room temperature. Thereafter, the slides were washed twice with washing buffer (5% Tween 20™ in PBS) for 5 minutes, once with PBS for 5 minutes and once with TRIS buffer (0.05 M in PBS) for 5 minutes, followed by incubation in DAB reagent for color development. The reaction was terminated by immersing the slides in double distilled water followed by counterstaining with eosin (ICN, 0.5% in DDW). The slides were then washed with 70% ethanol by 2 quick immersions; dehydrated by washing once again with 95% ethanol for 2 minutes, twice with 100% ethanol for 5 minutes, and twice with xylene (100%) for 10 minutes; and mounted with entellan (MERCK Darmstadt Germany).
The effect of inhibiting or enhancing the activity of PPARγ using PPARγ antogonist and agonist, respectively, on wound healing was also evaluated in vivo. […]
The effect of adipsin (complementing Factor D, which is secreted from adipocytes) on wound healing was evaluated in vivo. […] The mice were sacrificed 6 days after wounding and the wounds were then analyzed. […] In addition, adipsin increased epidermal closure from about 15% to about 30%, and increased keratinocytes migration from about 30% to about 65%, as compared with the buffer control (FIG. 6).
Full thickness 20 mm incision wounds were performed on 8-10 week old C57BL mice, 6 mice per group. The wounds were treated daily for 7 days with PBS (control), adiponectin (1 μg/ml) or visfatin (0.01 μg/ml). Skin biopsies were paraffin embedded and slide sections representing the widest area of the wound were prepared. Sections were then subjected to histochemical staining such as H&E and Masson Trichrome (collagen). […]

A further assay has as its system primary keratinocytes. Kind of assay: Keratinocytes migration (wound scratch) assay in vitro. It counts as cell-based, murine. Conditions: for keratinocyte migration in scratch assay vs control and insulin: treated daily, 24 and 48 hrs. The protocol:
Primary keratinocytes were isolated from newborn skin as described in reference 18. Keratinocytes were cultured in Eagle's Minimal Essential Medium (EMEM) containing 8% Chelex (Chelex-100, BioRad) treated fetal bovine serum. To maintain a proliferative basal cell phenotype, the final Ca^2+ concentration was adjusted to 0.05 mM. Experiments were performed five to seven days after plating.
Primary mouse keratinocytes were untreated or treated with, PPARγ antagonist GW9662 (μM) or PPARγ agonist troglitazone (μM). Wound Scratch Assay was performed 24 hours following treatment, and representative fields were photographed immediately after the wounding (Day 0) and 48 hours later (Day 2). The average of wound closure represented as percentage in comparison to the initial width of the wound scratch (% of wound closure).
The effect of inhibiting or enhancing the activity of peroxisome proliferators-activated receptor gamma (PPARγ) on keratinocytes migration was evaluated utilizing the in vitro migration assay. Thus, primary keratinocytes were isolated and plated on 5 ml non-coated dishes until confluence in low Ca^2+ medium, and an artificial crossover scratch was formed in each dish with a 200 μm tip. Cells were either non-treated (control) or treated daily with PPARγ modulators.
In order to test the effect of different adipokines on keratinocyte migration to close the wound gap, an in vitro scratch assay was used. Thus, primary keratinocytes were isolated and plated on 5 ml non-coated dishes until confluence in low Ca^2+ medium, and an artificial crossover scratch was formed in each dish with a 200 μm tip. Cells were either non-treated (control) or treated daily with insulin (0.1 unit/ml), hIL-4 (2 ng/ml), hIL-6 (0.2 ng/ml), leptin (4 μg/ml) or apelin (0.02 μg/ml or 0.2 μg/ml).
(§1) Primary keratinocytes/fibroblasts were isolated and plated on 5 ml non-coated dishes until confluence in low Ca^2+ medium, and an artificial cross-over scratch was formed in each dish with a 200 μm tip. Then, cells were either non-treated or treated with visfatin (0.1 μg/ml or 0.0.1 μg/ml) or insulin (0.1 unit/ml) for up to 48 hrs.

For another assay, the system named is primary skin fibroblasts. Kind of assay: Fibroblasts scratch migration assay in vitro. Conditions: 24 hrs; hIL-8 5 ng/ml, hIL-1β 0.2 ng/ml, hIL-4 2 ng/ml, apelin 0.2 μg/ml, adiponectin 1 μg/ml. In kind it is cell-based. The protocol:
Primary skin fibroblasts were isolated and plated on 5 ml non-coated dishes until confluence in low Ca^2+ medium, and an artificial crossover scratch was formed in each dish with a 200 μm tip. Cells were either non-treated (control) or treated with insulin (0.1 unit/ml), hIL-8 (5 ng/ml), hIL-1β (0.2 ng/ml), hIL-4 (2 ng/ml), apelin (0.2 μg/ml) or adiponectin (1 μg/ml); and collected after 24 hrs.
as §1

The mark [2] stands for this setting: hIL-6 0.2 ng/ml, leptin 4 μg/ml, apelin 0.02 μg/ml.
[3] abbreviates: C57BL mice, insulin 1 μM topical daily for six days, untreated about 60%.

The source of these data is patent publication US8507431B2, “Methods for accelerating wound healing by administration of a preadipocyte modulator or an adipocyte modulator” (HealOr Ltd., priority 2003, dated 2013).

Entries after “also recorded” stand apart in the source; their conditions may differ.

As to `O=C(Nc1ccccc1)c1cc([N+](=O)[O-])ccc1Cl` [GW9662, 2-chloro-5-nitrobenzanilide, reference compound], in assay [1], the “epidermal migration vs PBS control (K14 staining)” value is listed as “promoted; also recorded: migrating toward covering the wound gap”; the “wound contraction vs PBS control” value is “promoted wound contraction”; the “dermal contraction (both dermal wound sides in a single field, H&E)” value is reported as “positive dermal contraction”; the “wound area compared with the buffer control (morphological analysis)” value is recorded as “substantially smaller”. In the assay on primary keratinocytes (scratch with 200 μm tip, Day 2 (48 hours), GW9662 2 μM, troglitazone 100 μM), the “keratinocytes migration in vitro vs untreated control” value is “promoted keratinocytes migration”.

Consider IL-1: adipokine hIL-1β, for which, in the assay on primary skin fibroblasts, the “fibroblasts migration to close the wound gap vs non-treated and insulin” value was “promoted fibroblasts migration to completely close the wound gap”.

As to IL-6: adipokine hIL-6, in the assay on primary keratinocytes (setting [2]), the “keratinocyte migration in scratch assay vs control and insulin” value was “not as significantly”.

Consider IL-8: adipokine hIL-8, for which, in the assay with primary skin fibroblasts, the “fibroblasts migration to close the wound gap vs non-treated and insulin” value is “smaller yet significant effect”.

Turning to adipsin, in assay [1] (adipsin 1 μM topical daily, buffer control about 15%), the “epidermal closure, percent of wounds positive (K14)” value is listed as “about 30%”. Also, the “keratinocytes migration, percent of wounds positive (K14)” value in assay [1] (adipsin 1 μM topical daily, buffer control about 30%) is recorded as “about 65%”. In assay [1], the “epidermal migration vs PBS control (K14 staining)” value is “migrating toward covering the wound gap”; the “wound contraction vs PBS control” value is on record as “substantially promoted wound contraction”; the “dermal contraction (both dermal wound sides in a single field, H&E)” value was “positive dermal contraction”; the “wound area compared with the buffer control (morphological analysis)” value was “substantially smaller”. In the assay with primary keratinocytes (no concentration given), the “keratinocytes migration in vitro (summary statement)” value is “substantially accelerated keratinocytes migration in vitro”.

With apelin, the “keratinocyte migration in scratch assay vs control and insulin” value is listed as “keratinocyte migration was highly significant” in the assay with primary keratinocytes (hIL-4 2 ng/ml, apelin 0.2 μg/ml) and “not as significantly” with primary keratinocytes (setting [2]). For the same molecule, in the assay on primary skin fibroblasts, the “fibroblasts migration to close the wound gap vs non-treated and insulin” value was “promoted fibroblasts migration to completely close the wound gap”.

As to insulin [reference compound], in assay [1] (setting [3]), the “migrating keratinocytes observed across the wound gap, percent of wounds (K14 staining)” value is “about 90%” and the “recruited adipocytes present, percent of wounds (H&E staining)” value is on record as around 80%. In assay [1], the “wound area compared with the buffer control (morphological analysis)” value is recorded as “substantially smaller”.

Turning to leptin, the “keratinocyte migration in scratch assay vs control and insulin” value with primary keratinocytes (setting [2]) is “not as significantly”.
